Patent publication US8802663B2, “Pyrazole oxadiazole derivatives as S1P1 agonists” (Merck Serono SA, priority 2009, dated 2014)
Where a name gives a salt, the structure may show the parent alone.

Target: S1P1 (Homo sapiens (Human), UniProt P21453)
Experiment: 35S-GTPγS binding, membranes from CHO cells expressing S1P1
Format: biochemical
Conditions: CHO cell membranes
Procedure: Cells were suspended in 50 mM TRIS, pH 7.4, 2 mM EDTA, 250 mM Sucrose (buffer A) and 1× Complete protease inhibitor cocktail (Roche), and disrupted at 4° C. by N2 decompression using a cell disruption bomb (Parr Instrument). Following centrifugation at 1000 RPM for 10 min at 4° C., the supernatant was suspended in buffer A and centrifuged again at 19000 RPM for 60 min at 4° C. The pellet was then suspended in 10 mM HEPES, pH 7.4, 1 mM EDTA, 250 mM Sucrose (Buffer B), and 1× Complete EDTA-free protease inhibitor cocktail and homogenized using a potter. Membranes were flash frozen in liquid N2 and stored at −80° C. [33P]sphingosine 1-phosphate (3000 Ci/mmol; American Radiolabeled Chemicals, Inc.) was added to test compounds in DMSO. […] Specific binding was calculated by subtracting remaining radioactivity in the presence of 1000-fold excess of unlabeled SIP. Binding data were analyzed using the GraphPad Prism program.
After 60 min incubation at 30° C. on a shaker, plates were centrifuged for 10 min at 2000 RPM. […] Triplicate samples were averaged and expressed as % response relative to S1P activation in absence of compound (n=2).

Sequence of S1P1 (P21453 whole entry, species assumed): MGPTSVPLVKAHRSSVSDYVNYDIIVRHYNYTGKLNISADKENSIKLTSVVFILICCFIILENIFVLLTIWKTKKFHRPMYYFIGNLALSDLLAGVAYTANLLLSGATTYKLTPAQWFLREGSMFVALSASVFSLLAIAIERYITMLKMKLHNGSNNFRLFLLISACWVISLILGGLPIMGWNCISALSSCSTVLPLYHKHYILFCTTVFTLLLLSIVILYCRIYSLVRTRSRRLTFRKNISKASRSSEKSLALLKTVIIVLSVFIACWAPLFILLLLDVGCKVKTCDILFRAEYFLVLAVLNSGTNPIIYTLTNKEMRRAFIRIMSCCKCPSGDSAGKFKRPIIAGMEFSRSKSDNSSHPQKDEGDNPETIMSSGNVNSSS

| EC50 | SMILES |
| --- | --- |
| 157 nM | CS(=O)(=O)c1cccc(-c2nc(-c3cnn(C4CCCCC4)c3-c3ccccc3)no2)c1 [Example 58, 3-(1-cyclohexyl-5-phenyl-1H-pyrazol-4-yl)-5-[3-(methylsulfonyl)phenyl]-1,2,4-oxadiazole] |
| 335 nM | FC(F)(F)c1cccc(-c2nc(-c3cnn(C4CCCCC4)c3-c3ccccc3)no2)c1 [Example 59, 3-(1-cyclohexyl-5-phenyl-1H-pyrazol-4-yl)-5-[3-(trifluoromethyl)phenyl]-1,2,4-oxadiazole] |
| 320 nM | Cc1c(-c2nc(-c3cc(F)ccc3F)no2)cnn1-c1ccccc1F [Example 60, 3-(2,5-difluorophenyl)-5-[1-(2-fluorophenyl)-5-methyl-1H-pyrazol-4-yl]-1,2,4-oxadiazole] |
| 22 nM | CN(CC(=O)O)Cc1ccc(-c2noc(-c3cnn(C4CCCCC4)c3-c3ccncc3)n2)cc1 [Example 61, N-{4-[5-(1-cyclohexyl-5-pyridin-4-yl-1H-pyrazol-4-yl)-1,2,4-oxadiazol-3-yl]benzyl}-N-methylglycine] |
| 3 nM | OC1CN(Cc2ccc(-c3noc(-c4cnn(C5CCCCC5)c4-c4ccncc4)n3)cc2)C1 [Example 62, 1-{4-[5-(1-cyclohexyl-5-pyridin-4-yl-1H-pyrazol-4-yl)-1,2,4-oxadiazol-3-yl]benzyl}azetidin-3-ol] |
| 428 nM | CC(C)Cn1ncc(-c2nc(-c3ccc(CO)cc3)no2)c1C1CCOCC1 [Example 63] |
| 99 nM | COCc1c(-c2nc(-c3ccc(CN4CCC(C(=O)O)CC4)cc3)no2)cnn1C1CCCCC1 [Example 64, 1-(4-{5-[1-cyclohexyl-5-(methoxymethyl)-1H-pyrazol-4-yl]-1,2,4-oxadiazol-3-yl}benzyl)piperidine-4-carboxylic acid] |
| 1 nM | O=C(O)CCNCc1ccc(-c2noc(-c3cnn(C4CCCCC4)c3-c3ccncc3)n2)cc1 [Example 65, N-{4-[5-(1-cyclohexyl-5-pyridin-4-yl-1H-pyrazol-4-yl)-1,2,4-oxadiazol-3-yl]benzyl}-beta-alanine] |
| 13 nM | c1cc(-c2c(-c3nc(-c4ccc(CN5CCC5)cc4)no3)cnn2C2CCCCC2)ccn1 [Example 66, 4-(4-{3-[4-(azetidin-1-ylmethyl)phenyl]-1,2,4-oxadiazol-5-yl}-1-cyclohexyl-1H-pyrazol-5-yl)pyridine] |
| 1.4 nM | COCc1c(-c2nc(-c3ccc(CNCCC(=O)O)cc3)no2)cnn1C1CCCCC1 [Example 67, N-(4-{5-[1-cyclohexyl-5-(methoxymethyl)-1H-pyrazol-4-yl]-1,2,4-oxadiazol-3-yl}benzyl)-beta-alanine] |
| 0.3 nM | COCc1c(-c2nc(-c3ccc(CN4CC(C(=O)O)C4)cc3)no2)cnn1C1CCCCC1 [Example 68, 1-(4-{5-[1-cyclohexyl-5-(methoxymethyl)-1H-pyrazol-4-yl]-1,2,4-oxadiazol-3-yl}benzyl)azetidine-3-carboxylic acid] |
| 437 nM | COCc1c(-c2nc(-c3ccc(CO)cc3)no2)cnn1CC(C)C [Example 69, (4-{5-[1-isobutyl-5-(methoxymethyl)-1H-pyrazol-4-yl]-1,2,4-oxadiazol-3-yl}phenyl)methanol] |
| 82 nM | OCc1ccc(-c2noc(-c3cnn(C4CCCCC4)c3C3CCOCC3)n2)cc1 [Example 70, (4-{5-[1-cyclohexyl-5-(tetrahydro-2H-pyran-4-yl)-1H-pyrazol-4-yl]-1,2,4-oxadiazol-3-yl}phenyl)methanol] |
| 6 nM | O=C(O)C1CCN(Cc2ccc(-c3noc(-c4cnn(C5CCCCC5)c4-c4ccncc4)n3)cc2)CC1 [Example 71, 1-{4-[5-(1-cyclohexyl-5-pyridin-4-yl-1H-pyrazol-4-yl)-1,2,4-oxadiazol-3-yl]benzyl}piperidine-4-carboxylic acid] |
| 119 nM | COCc1c(-c2nc(-c3ccc(CN(C)CC(=O)O)cc3)no2)cnn1C1CCCCC1 [Example 72, N-(4-{5-[1-cyclohexyl-5-(methoxymethyl)-1H-pyrazol-4-yl]-1,2,4-oxadiazol-3-yl}benzyl)-N-methylglycine] |
| 30 nM | COCc1c(-c2nc(-c3ccc(CN4CC(O)C4)cc3)no2)cnn1C1CCCCC1 [Example 73, 1-(4-{5-[1-cyclohexyl-5-(methoxymethyl)-1H-pyrazol-4-yl]-1,2,4-oxadiazol-3-yl}benzyl)azetidin-3-ol] |
| 86 nM | COCc1c(-c2nc(-c3ccc(CN4CCC(O)C4)cc3)no2)cnn1C1CCCCC1 (stereo not drawn) [Example 74, 1-(4-{5-[1-cyclohexyl-5-(methoxymethyl)-1H-pyrazol-4-yl]-1,2,4-oxadiazol-3-yl}benzyl)pyrrolidin-3-ol] |
| 63 nM | COCc1c(-c2nc(-c3ccc(CN(C)C)cc3)no2)cnn1C1CCCCC1 [Example 75, 1-(4-{5-[1-cyclohexyl-5-(methoxymethyl)-1H-pyrazol-4-yl]-1,2,4-oxadiazol-3-yl}phenyl)-N,N-dimethylmethanamine] |
| 23 nM | COCc1c(-c2nc(-c3ccc(CN4CC(C(=O)O)C4)cc3)no2)cnn1CC(C)C [Example 76, 1-(4-{5-[1-isobutyl-5-(methoxymethyl)-1H-pyrazol-4-yl]-1,2,4-oxadiazol-3-yl}benzyl)azetidine-3-carboxylic acid] |
| 837 nM | CC(C)Cn1ncc(-c2nc(-c3ccc(CN(C)CC(=O)O)cc3)no2)c1-c1ccncc1 [Example 77, N-{4-[5-(1-isobutyl-5-pyridin-4-yl-1H-pyrazol-4-yl)-1,2,4-oxadiazol-3-yl]benzyl}-N-methylglycine] |
| 67 nM | COCCNCc1ccc(-c2noc(-c3cnn(C4CCCCC4)c3-c3ccncc3)n2)cc1 [Example 78, N-(4-(5-(1-cyclohexyl-5-(pyridin-4-yl)-1H-pyrazol-4-yl)-1,2,4-oxadiazol-3-yl)benzyl)-2-methoxyethanamine] |
| 252 nM | CC(C)Cn1ncc(-c2nc(-c3ccc(CN4CCC(O)C4)cc3)no2)c1-c1ccncc1 (stereo not drawn) [Example 80, 1-(4-(5-(1-isobutyl-5-(pyridin-4-yl)-1H-pyrazol-4-yl)-1,2,4-oxadiazol-3-yl)benzyl)pyrrolidin-3-ol, formate] |
| 195 nM | CC(C)Cn1ncc(-c2nc(-c3ccc(CN(C)C)cc3)no2)c1-c1ccncc1 [Example 81, 1-(4-(5-(1-isobutyl-5-(pyridin-4-yl)-1H-pyrazol-4-yl)-1,2,4-oxadiazol-3-yl)phenyl)-N,N-dimethylmethanamine, formate] |
| 156 nM | CC(C)Cn1ncc(-c2nc(-c3ccc(CN4CC(O)C4)cc3)no2)c1-c1ccncc1 [Example 82, 1-(4-(5-(1-isobutyl-5-(pyridin-4-yl)-1H-pyrazol-4-yl)-1,2,4-oxadiazol-3-yl)benzyl)azetidin-3-ol, formate] |
| 313 nM | Cc1nn(C2CCCCC2)cc1-c1nc(-c2cc(F)ccc2F)no1 [Example 83, 5-(1-cyclohexyl-3-methyl-1H-pyrazol-4-yl)-3-(2,5-difluorophenyl)-1,2,4-oxadiazole] |
| 288 nM | COCc1c(-c2nc(-c3ccc(CNCCC(=O)O)cc3)no2)cnn1CC(C)C [Example 84, 3-(4-(5-(1-isobutyl-5-(methoxymethyl)-1H-pyrazol-4-yl)-1,2,4-oxadiazol-3-yl)benzylamino)propanoic acid] |
| 179 nM | CNCc1ccc(-c2noc(-c3cnn(CC(C)C)c3-c3ccncc3)n2)cc1 [Example 85, 1-(4-(5-(1-isobutyl-5-(pyridin-4-yl)-1H-pyrazol-4-yl)-1,2,4-oxadiazol-3-yl)phenyl)-N-methylmethanamine] |
